These results are taken from patent US9233977B2, “Leucine-rich repeat kinase enzyme activity” (Merck Sharp & Dohme Corp., priority 2010, dated 2016).

Structures are written as SMILES.

T1 sequence (Q5S007 whole entry G2019S): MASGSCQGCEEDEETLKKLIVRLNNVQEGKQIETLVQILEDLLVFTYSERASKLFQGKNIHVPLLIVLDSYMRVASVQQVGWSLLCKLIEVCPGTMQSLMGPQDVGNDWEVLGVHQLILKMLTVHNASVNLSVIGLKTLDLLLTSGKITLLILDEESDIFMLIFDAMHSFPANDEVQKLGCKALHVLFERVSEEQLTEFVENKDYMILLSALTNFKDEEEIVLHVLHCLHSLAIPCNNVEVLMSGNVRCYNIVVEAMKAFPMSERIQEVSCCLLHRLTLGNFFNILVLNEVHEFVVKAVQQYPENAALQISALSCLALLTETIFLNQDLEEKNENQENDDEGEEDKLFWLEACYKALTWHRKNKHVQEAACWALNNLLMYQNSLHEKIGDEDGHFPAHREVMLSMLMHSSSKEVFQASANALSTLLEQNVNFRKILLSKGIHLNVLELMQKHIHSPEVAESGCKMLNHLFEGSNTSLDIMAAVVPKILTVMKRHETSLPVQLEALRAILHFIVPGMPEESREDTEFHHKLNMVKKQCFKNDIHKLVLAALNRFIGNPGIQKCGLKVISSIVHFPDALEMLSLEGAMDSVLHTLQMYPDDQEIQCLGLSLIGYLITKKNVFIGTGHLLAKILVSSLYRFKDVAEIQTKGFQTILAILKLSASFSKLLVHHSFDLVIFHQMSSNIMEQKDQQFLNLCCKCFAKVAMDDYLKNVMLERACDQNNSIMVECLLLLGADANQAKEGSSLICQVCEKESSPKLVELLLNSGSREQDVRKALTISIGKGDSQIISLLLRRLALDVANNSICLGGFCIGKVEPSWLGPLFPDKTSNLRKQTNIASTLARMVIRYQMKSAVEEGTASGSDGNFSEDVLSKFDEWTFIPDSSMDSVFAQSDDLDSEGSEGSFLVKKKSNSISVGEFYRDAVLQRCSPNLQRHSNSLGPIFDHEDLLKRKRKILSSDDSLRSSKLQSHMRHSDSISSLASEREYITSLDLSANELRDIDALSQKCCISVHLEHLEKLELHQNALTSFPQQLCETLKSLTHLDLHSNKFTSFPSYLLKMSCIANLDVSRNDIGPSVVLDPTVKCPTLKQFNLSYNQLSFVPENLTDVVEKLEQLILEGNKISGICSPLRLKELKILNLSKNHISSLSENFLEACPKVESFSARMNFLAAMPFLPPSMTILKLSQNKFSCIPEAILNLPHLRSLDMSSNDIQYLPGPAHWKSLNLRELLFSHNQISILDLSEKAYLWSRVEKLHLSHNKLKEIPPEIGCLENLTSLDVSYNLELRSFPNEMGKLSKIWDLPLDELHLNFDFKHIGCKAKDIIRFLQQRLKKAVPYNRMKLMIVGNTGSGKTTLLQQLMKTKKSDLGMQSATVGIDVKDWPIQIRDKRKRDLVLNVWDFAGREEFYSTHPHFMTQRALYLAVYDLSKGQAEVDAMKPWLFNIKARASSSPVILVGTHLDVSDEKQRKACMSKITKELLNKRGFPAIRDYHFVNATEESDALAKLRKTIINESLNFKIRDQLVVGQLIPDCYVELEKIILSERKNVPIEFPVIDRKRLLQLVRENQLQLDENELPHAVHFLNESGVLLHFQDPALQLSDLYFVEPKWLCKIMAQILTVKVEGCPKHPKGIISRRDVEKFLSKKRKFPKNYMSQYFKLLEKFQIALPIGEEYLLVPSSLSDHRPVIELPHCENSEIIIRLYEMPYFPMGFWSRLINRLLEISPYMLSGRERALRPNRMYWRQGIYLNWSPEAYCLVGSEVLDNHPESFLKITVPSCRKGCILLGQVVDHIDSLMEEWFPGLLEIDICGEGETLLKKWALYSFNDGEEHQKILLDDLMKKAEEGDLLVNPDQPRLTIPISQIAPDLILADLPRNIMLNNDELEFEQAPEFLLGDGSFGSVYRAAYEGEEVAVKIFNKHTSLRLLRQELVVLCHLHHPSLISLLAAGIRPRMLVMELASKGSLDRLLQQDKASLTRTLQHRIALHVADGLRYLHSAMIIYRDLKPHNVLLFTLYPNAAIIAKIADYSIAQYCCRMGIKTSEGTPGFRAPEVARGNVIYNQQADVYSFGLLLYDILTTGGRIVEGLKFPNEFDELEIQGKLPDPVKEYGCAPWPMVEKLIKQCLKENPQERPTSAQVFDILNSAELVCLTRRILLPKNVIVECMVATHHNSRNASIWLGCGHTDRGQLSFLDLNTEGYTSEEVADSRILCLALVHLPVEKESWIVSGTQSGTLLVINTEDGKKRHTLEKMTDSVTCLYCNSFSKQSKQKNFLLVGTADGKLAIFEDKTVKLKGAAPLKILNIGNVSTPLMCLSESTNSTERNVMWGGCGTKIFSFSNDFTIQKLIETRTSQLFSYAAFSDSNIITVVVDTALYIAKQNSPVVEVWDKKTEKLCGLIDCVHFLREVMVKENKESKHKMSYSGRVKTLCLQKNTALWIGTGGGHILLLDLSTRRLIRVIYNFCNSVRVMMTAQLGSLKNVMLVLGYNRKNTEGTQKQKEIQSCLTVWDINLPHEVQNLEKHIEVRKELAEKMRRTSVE

This experiment addresses T1, LRRK2 G2019S mutant kinase (Homo sapiens, UniProt Q5S007, G2019S).
T1 construct: GST; purchased Invitrogen PV4882
In words: LRRK2 G2019S LanthaScreen TR-FRET kinase assay. The following applies: LRRK2 G2019S GST-tagged protein, 75 nM Fluorescein-ERM (LRRKtide), 100 μM ATP, 1 hour at room temperature; read-out: IC50 (potency). The format is biochemical. The protocol:
The final solvent concentration in the assay was 1% DMSO. […] Generation of raw data and workup of data to derive the IC50 (potency) and maximal inhibition at concentrations tested were performed using Merck's Assay Data Analyzer (ADA) software.
The IC50 (potency) was evaluated for the example compounds presented above.
For orientation: IC50 means the concentration needed to halve the response being measured. Regarding `O=C1NCCc2c(-c3cc[nH]n3)sc(SC3CCCCC3)c21` [Example 45, 3-(cyclohexylsulfanyl)-1-(1H-pyrazol-3-yl)-6,7-dihydrothieno[3,4-c]pyridin-4(5)-one], the IC50 stood at 0.38 µM.
As for `O=C(O)CSc1sc(-c2cc[nH]n2)c2c1C(=O)NCC2` [Example 46, 1-{[4-oxo-1-(1H-pyrazol-3-yl)-4,5,6,7-tetrahydrothieno[3,4-c]pyridin-3-yl]sulfanyl}acetic acid], the figure is 3.1 µM; as for `O=C1NCCc2c(-c3cc[nH]n3)sc(SCCO)c21` [Example 47], 0.58 µM.
As for `CCC(C)CSc1sc(-c2cc[nH]n2)c2c1C(=O)N[C@@H](C)C2` (stereo partly shown) [Example 48], the figure is 0.055 µM; as for `CCC(C)CSc1sc(-c2cc[nH]n2)c2c1C(=O)N[C@H](C)C2` (stereo partly shown) [Example 49], 0.12 µM; as for `C[C@@H]1Cc2c(-c3cc[nH]n3)sc(SC3(C(=O)O)CCCC3)c2C(=O)N1` [Example 50, 1-{[(6R)-6-methyl-4-oxo-1-(1H-pyrazol-3-yl)-4,5,6,7-tetrahydrothieno[3,4-c]pyridin-3-yl]sulfanyl}cyclopentanecarboxylic acid], 3.4 µM.
As to `C[C@H]1Cc2c(-c3cc[nH]n3)sc(SCC(=O)O)c2C(=O)N1` [Example 51, (6S)-6-methyl-1-{[4-oxo-1-(1H-pyrazol-3-yl)-4,5,6,7-tetrahydrothieno[3,4-c]pyridin-3-yl]sulfanyl}acetic acid], the IC50 came to 2.2 µM.
Under `C[C@@H]1Cc2c(-c3cc[nH]n3)sc(SCC(=O)O)c2C(=O)N1` [Example 52, (6R)-6-methyl-1-{[4-oxo-1-(1H-pyrazol-3-yl)-4,5,6,7-tetrahydrothieno[3,4-c]pyridin-3-yl]sulfanyl}acetic acid] stands 2.7 µM; under `O=C1NCCc2c(-c3cc[nH]n3)sc(Sc3ccccc3)c21` [Example 53, 3-phenylsulfanyl-1-(1H-pyrazol-3-yl)-6,7-dihydrothieno[3,4-c]pyridin-4(5)-one], 1.5 µM.
Under `CSc1sc(-c2cc[nH]n2)c2c1C(=O)N(C(C)C)CC2` [Example 54, 3-(Methylsulfanyl)-5-(propan-2-yl)-1-(1H-pyrazol-3-yl)-6,7-dihydrothieno[3,4-c]pyridin-4(5H)-one] stands 3.5 µM.
As to `CSc1sc(-c2cc[nH]n2)c2c1C(=O)N(CCc1ccccc1)CC2` [Example 55, 3-(methylsulfanyl)-5-(2-phenethyl)-1-(1H-pyrazol-3-yl)-6,7-dihydrothieno[3,4-c]pyridin-4(5)-one], the half-inhibitory concentration (IC50) amounted to 1.2 µM.
Under `CSc1sc(-c2cc[nH]n2)c2c1C(=O)N(Cc1ccnc3ccccc13)CC2` [Example 56, 3-(methylsulfanyl)-1-(1H-pyrazol-3-yl)-5-(quinolin-4-ylmethyl)-6,7-dihydrothieno[3,4-c]pyridin-4(5)-one] stands 3.7 µM; under `CSc1sc(-c2cc[nH]n2)c2c1C(=O)N(Cc1ccc(Br)cn1)CC2` [Example 57, 5-[(5-bromopyridin-2-yl)methyl]-3-(methylsulfanyl)-1-(1H-pyrazol-3-yl)-6,7-dihydrothieno[3,4-c]pyridin-4(5)-one], 3.8 µM.
On to `CSc1sc(-c2cc[nH]n2)c2c1C(=O)N(Cc1cccnc1Cl)CC2` [Example 58, 5-[(2-chloropyridin-3-yl)methyl]-3-(methylsulfanyl)-1-(1H-pyrazol-3-yl)-6,7-dihydrothieno[3,4-c]pyridin-4(5)-one], for which the IC50 stood at 3 µM.
As to `CSc1sc(-c2cc[nH]n2)c2c1C(=O)N(CCCC#N)CC2` [Example 59, 4-[3-(methylsulfanyl)-4-oxo-1-(1H-pyrazol-3-yl)-6,7-dihydrothieno[3,4-]pyridin-5(4H)-yl]butanenitrile], the IC50 stood at 3.7 µM.
Under `CSc1sc(-c2cc[nH]n2)c2c1C(=O)N(CCCCO)CC2` [Example 60, 5-(4-hydroxybutyl)-3-(methylsulfanyl)-1-(1H-pyrazol-3-yl)-6,7-dihydrothieno[3,4-c]pyridin-4(5)-one] stands 1.7 µM; under `CSc1sc(-c2cc[nH]n2)c2c1C(=O)N(Cc1cccnc1)CC2` [Example 61, 5-[(3-pyridinyl)methyl]-3-(methylsulfanyl)-1-(1H-pyrazol-3-yl)-6,7-dihydrothieno[3,4-c]pyridin-4(5)-one], 2.1 µM; under `CSc1sc(-c2cc[nH]n2)c2c1C(=O)N(CC1CCNC1)CC2` (stereo not shown) [Example 62, 3-(methylsulfanyl)-1-(1H-pyrazol-3-yl)-5-(pyrrolidin-3-ylmethyl)-6,7-dihydrothieno[3,4-c]pyridin-4(5H)-one], 4.3 µM.
Turning to `CSc1sc(-c2cc[nH]n2)c2c1C(=O)N(CC1CCCCO1)CC2` (stereo not shown) [Example 63, 5-[(2-tetrahydropyranyl)methyl]-3-(methylsulfanyl)-1-(1H-pyrazol-3-yl)-6,7-dihydrothieno[3,4-c]pyridin-4(5)-one], the IC50 amounted to 8.4 µM.
For `CSc1sc(-c2cc[nH]n2)c2c1C(=O)N(CCCCc1ccccc1)CC2` [Example 64, 5-[(4-phenyl)butyl]-3-(methylsulfanyl)-1-(1H-pyrazol-3-yl)-6,7-dihydrothieno[3,4-c]pyridin-4(5)-one], the IC50 stood at 5 µM.
As for `CSc1sc(-c2cc[nH]n2)c2c1C(=O)N(CC1CCCNC1)CC2` (stereo not shown) [Example 65, 3-(methylsulfanyl)-1-(1H-pyrazol-3-yl)-5-(piperidin-3-ylmethyl)-6,7-dihydrothieno[3,4-c]pyridin-4(5H)-one], the figure is 3.4 µM.
As to `CSc1sc(-c2cc[nH]n2)c2c1C(=O)N(CC1CCOCC1)CC2` [Example 66, 5-[(4-tetrahydropyranyl)methyl]-3-(methylsulfanyl)-1-(1H-pyrazol-3-yl)-6,7-dihydrothieno[3,4-c]pyridin-4(5)-one], the IC50 stood at 3.7 µM.
Under `CSc1sc(-c2cc[nH]n2)c2c1C(=O)N(CCN1CCOCC1)CC2` [Example 67, 3-(methylsulfanyl)-5-[2-(morpholin-4-yl)ethyl]-1-(1H-pyrazol-3-yl)-6,7-dihydrothieno[3,4-c]pyridin-4(5)-one] stands 9.2 µM; under `CSc1sc(-c2cc[nH]n2)c2c1C(=O)N(CCCCOc1ccccc1)CC2` [Example 68, 3-(methylsulfanyl)-5-(4-phenoxybutyl)-1-(1H-pyrazol-3-yl)-6,7-dihydrothieno[3,4-c]pyridin-4(5)-one], 3.2 µM.
As for `CSc1sc(-c2cc[nH]n2)c2c1C(=O)N(CCC=C(F)F)CC2` [Example 69, 5-(4,4-difluorobut-3-en-1-yl)-3-(methylsulfanyl)-1-(1H-pyrazol-3-yl)-6,7-dihydrothieno[3,4-c]pyridin-4(5)-one], the IC50 came to 0.76 µM.
For the compound `CSc1sc(-c2cc[nH]n2)c2c1C(=O)N(CCCCC#N)CC2` [Example 70, 5-[3-(methylsulfanyl)-4-oxo-1-(1H-pyrazol-3-yl)-6,7-dihydrothieno[3,4H)-yl]pentanenitrile], the IC50 stood at 2.5 µM.
For the compound `CSc1sc(-c2cc[nH]n2)c2c1C(=O)N(CCC1CCCCC1)CC2` [Example 71, 3-(methylsulfanyl)-5-[(2-cyclohexyl)ethyl]-1-(1H-pyrazol-3-yl)-6,7-dihydrothieno[3,4-c]pyridin-4(5)-one], the IC50 is 7.5 µM.
Under `CSc1sc(-c2cc[nH]n2)c2c1C(=O)N(Cc1ccncc1)CC2` [Example 72, 5-[(4-pyridyl)methyl]-3-(methylsulfanyl)-1-(1H-pyrazol-3-yl)-6,7-dihydrothieno[3,4-c]pyridin-4(5)-one] stands 7.9 µM.
